Measured values taken from patent publication US20050267020A1, “Polypeptides derived from inducible hsp70 and pharmaceutical compositions containing the same” (priority 2001, published 2005).

Key:
HHD mice = test: Vaccination of HHD mice, ex vivo IFN-γ ELISPOT assay; format: in vivo, mouse
Excerpt: Immune responses were monitored ex vivo in an IFN-γ Elispot assay. The X axis represents the percentage of immunized mice responding to the different epitopes.
The 8 graphs represent the immune responses obtained for each of the immunized mice with the 22-mer epitope. The X axis represents the number of IFN-γ producing CTLs for 10^5 ex vivo CD8+ cells upon activation. On the Y axis, the bars represent the respective level of IFN-γ producing CTLs against p391 or p393 peptide or against irrelevant HIV pol589 peptides.
Generation of CTL in HLA-transgenic mice. HLA-transgenic mice were injected subcutaneously at the base of the tail with 100 μg of peptide emulsified in incomplete Freund's adjuvant (IFA) in the presence of 140 μg of the I-A^b restricted HBVcore-derived T-helper epitope (128-140; sequence TPPAYRPPNAPIL). After 11 days, spleen cells (5×10^7 cells in 10 mL) were stimulated in vitro with peptide (10 μM). […]
ELISPOT Assay. The ELISPOT assay was used to quantify peptide epitope-specific, IFN-γ-releasing effector cells. […] The spots were counted using an automated image analysis system ELISPOT Reader (A/D Strassberg, Germany). The peptide-specific IFN-γ secreting cells frequency could be calculated from the numbers of spot-forming cells and from the CD8+ frequency in the studied lymphocyte population, adressed by immunostaining with an anti-CD8 mAb (clone 3B5; Caltag Laboratories, CA).

human CD8+ cells = test: Generation of CTL from human PBMC with peptide- or polyepitope-pulsed dendritic cells, intracellular IFN-γ staining; format: cell-based; settings: human PBMC; multiple restimulations of CD8+ cells; T2 cells loaded with p380, p391 or p393
Experimental: The three graphs entitled hCTL380, hCTL391 and hCTL393 represent respectively the testing of p380, p391 and p393-specific human CTLs. P391 and p393 specific CTLs were tested towards EBV-B cells, whereas p380 specific CTLs were tested towards T2 cells. The number of IFN-γ producing CD8+ cells for 10^5 CD8+ cells upon activation, indicated on the X-axis, was measured, as assessed by staining cells for CD8 and intracellular IFN-γ.
Polyepitope induced human CTL were tested for their capacity to respond to T2 cells loaded with p380, p391 or p393 or the irrelevant HIVpol589 peptides in intracellular IFN-γ staining. The X axis represents the number of IFNγ-producing CTL/10^5 CD8+ cells. On the Y axis, upper to lower bars represent the results obtained when cells were loaded respectively with irrelevant HIV pol589 peptides, or with p380, p391 or p393 peptides.
Generation of CTL from Human Peripheral Blood Mononuclear Cells (PBMC). Fresh PBMC collected from healthy donnors under informed consent were serologically typed for the studied HLA-class I molecule, and purified using standard Ficoll-Paque (Amersham Pharmacia Biotech AB). Dendritic cells (DC) were prepared by cultivating plastic adherent PBMC in the presence of 500 U/mL GM-CSF (R&D Systems Inc. MN) and 500 U/mL IL-4 (R&D Systems Inc. MN) for 7 days such as described in Keogh et al. (30).
DC were then maturated for 2 days with 2 μg/mL anti-CD40 antibody and 100 ng/mL Poly I:C (Sigma-Aldrich). […] Autologous CD8+ purified T-cells (CD8 MicroBeads, Miltneyi Biotec Inc. CA) were stimulated weekly with DC pulsed for two hours with peptide (10 μM) and irradiated at 35Gy at a T:DC ratio of 10:1 in culture medium (CM; RPMI 1640 supplemented with 10% human AB serum, […] L-glutamine and gentamycin). 1×10^3 U/mL IL-6 and SU/mL IL-12 (R&D Systems Inc. MN) were added during the first week of culture. 20 U/mL clinical grade IL-2 (Proleukin, Chiron Corp.) and 10 ng/mL IL-7 (R&D Systems Inc. MN) were added during the next two weeks of culture. 7 days after the last stimulation with DC, peptide specific IFN-γ secreting CD8+ T cells were magnetically sorted following encounter of the peptide presented by HLA-A*0201+ B-EBV cells (IFN-γ Secretion Assay, Miltenyi Biotec Inc. CA). The characterization of peptide-specific T cells was tested 7 days after the purification step.
Intracellular IFN-g Staining. 5×10^4 T cells were incubated with 10^5 stimulating peptide loaded EBV-B cells or with 10^5 tumor cells in the presence of 20 μg/ml brefeldin-A (Sigma, Oakville, Canada). Six hours later, they were washed, stained with r-phycoerythrin-conjugated anti-CD8 antibody (Caltag Laboratories, Burlingame, Calif.) in PBS for 25 min at 4° C., washed and fixed with 4% PFA. Then, cells were permeabilized with PBS 0.5% BSA 0.2% saponin (Sigma, Oakville, Canada), and stained with allophycocyanin-conjugated anti-IFNg mAb (PharMingen, Mississauga, Canada) for 25 min at 4° C. Cells were analyzed on FACSCalibur (Becton Dickinson, Mountain View, Calif.).

“LMGDKSENVQDLLLLDVAPLSL [22-mer polyepitope]” was tested, and the “mice responding after vaccination” value (HHD mice) was “induced responses in most mice”, the “epitopes against which immune responses were raised after vaccination” value (HHD mice; HSP380, HSP391, HSP393 epitopes) was “induced immune responses against all three Hsp70 epitopes” and the “specificity of human CTL lines induced with pulsed dendritic cells” value (human CD8+ cells) was “showed specificity towards all three Hsp70 epitopes”.
